Like-named read-outs stand apart in the source and are kept apart here.
Target: FPR2 (Homo sapiens (Human), UniProt P25090)
Experiment: FLIPR Ca+2 response, HEK-Gα16 cells stably expressing the human FPR2 receptor (Table 4)
Assay type: cell-based
Settings: for FPR2 (efficacy): efficacy in parentheses
Method: FLIPR: HEK-Gα16 cells stably expressing the human FPR2 receptor was utilized. Cells were plated into 384-well poly-D-lysine coated plates at a density of 18,000 cells per well one day prior to use. The growth media was DMEM medium supplemented with 10% fetal bovine serum (FBS), 1% antibiotic-antimycotic, 50 μg/ml hygromycin, and 400 μg/ml geneticin. On the day of the experiment, the cells were washed twice with Hank's Balanced Salt Solution supplemented with 20 mM HEPES (HBSS/hepes buffer). The cells were then dye loaded with 2 μM Fluo-4 diluted in the HBSS/Hepes buffer and incubated at 37° C. for 40 minutes. Extracellular dye was removed by washing the cell plates four times prior to placing the plates in the FLIPR (Fluorometric Imaging Plate Reader, Molecular Devices). Ligands were diluted in HBSS/Hepes buffer and prepared in 384-well microplates. Data for Ca^+2 responses were obtained in relative fluorescence units.

Chain of FPR2 (P25090 whole entry): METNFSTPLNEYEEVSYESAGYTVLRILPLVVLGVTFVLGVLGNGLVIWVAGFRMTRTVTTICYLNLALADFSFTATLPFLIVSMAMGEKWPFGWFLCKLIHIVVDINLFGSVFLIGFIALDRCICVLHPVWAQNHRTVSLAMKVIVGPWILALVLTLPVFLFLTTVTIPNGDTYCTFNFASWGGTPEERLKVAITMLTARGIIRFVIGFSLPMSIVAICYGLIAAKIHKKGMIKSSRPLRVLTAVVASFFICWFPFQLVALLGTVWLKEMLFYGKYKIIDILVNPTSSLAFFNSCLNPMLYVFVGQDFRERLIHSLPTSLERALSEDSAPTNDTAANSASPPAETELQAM

| EC50 [nM] | FPR2 (efficacy) | EC50 (unit inferred) [nM] | SMILES |
| --- | --- | --- | --- |
| 4 | nM (0.90) | – | O=C(O)[C@@H]1C2CCC([C@@H]1C(=O)Nc1ccc(Br)cc1)C21CC1 (relative stereo) [Compound 14, rel-(2R,3S)-3-[(4-bromophenyl)carbamoyl] spiro[bicyclo[2.2.1]heptane-7,1′-cyclopropane]-2-carboxylic acid] |
| – | nM (0.93) | – | CC1(CCc2ccccc2)NC(=O)N(NC(=O)Nc2ccc(Br)cc2)C1=O (single isomer, unassigned; (+)) [Compound 57] |
| – | nM (0.96) | – | CCC1(C(C)C)NC(=O)N(NC(=O)Nc2ccc(Br)cc2)C1=O (single isomer, unassigned; (+)) [Compound 66, (+)1-(4-bromophenyl)-3-[4-ethyl-2,5-dioxo-4-(propan-2-yl)imidazolidin-1-yl]urea] |
| – | nM (0.91) | – | NC(=O)C1C(C(=O)Nc2ccc(Br)cc2)C2CCC1C21CC1 (single isomer, unassigned; (-)) [Compound 45, (−) N-(4-bromophenyl)spiro[bicyclo[2.2.1]heptane-7,1′-cyclopropane]-2,3-dicarboxamide] |
| – | nM (1.0) | – | CCC1(C(C)C)NC(=O)N(NC(=O)Nc2ccc(Br)cc2)C1=O (single isomer, unassigned; (-)) [Compound 67, (−)1-(4-bromophenyl)-3-[4-ethyl-2,5-dioxo-4-(propan-2-yl)imidazolidin-1-yl]urea] |
| – | μM (0.59) | – | CCC(C)[C@@H](NC(=O)Nc1ccc(Br)cc1)C(=O)O (stereo in doubt) [Compound 122, (2R,3R)-2-{[(4-bromophenyl)carbamoyl]amino}-3-methylpentanoic acid] |
| – | (0.96) | 3 | CCC1(CCc2ccccc2)NC(=O)N(NC(=O)Nc2ccc(Br)cc2)C1=O (stereo not shown) [Compound 1, 1-(4-bromophenyl)-3-[4-ethyl-2,5-dioxo-4-(2-phenylethyl)imidazolidin-1-yl]urea] |
| – | (0.91) | 2 | CCC[C@H](NC(=O)Nc1ccc(Br)cc1)C(=O)NCC(=O)O [Compound 2, {[(2S)-2-{[(4-bromophenyl)carbamoyl]amino}pentanoyl]amino}acetic acid] |
| – | (0.90) | – | CCC1(C(C)C)NC(=O)N(NC(=O)Nc2ccc(Br)cc2)C1=O (stereo not shown) [Compound 4, 1-(4-bromophenyl)-3-[4-ethyl-2,5-dioxo-4-(propan-2-yl)imidazolidin-1-yl]urea] |
| – | (0.96) | 31 | CC[C@H](C)[C@H](NC(=O)Nc1ccc(Br)cc1F)C(=O)O [Compound 5, (2S,3S)-2-{[(4-bromo-2-fluorophenyl)carbamoyl]amino}-3-methylpentanoic acid] |
| – | (0.91) | 1.66 | CC(C)C[C@H](NC(=O)Nc1ccc(Br)cc1)C(=O)NC(C)(C)C(=O)O [Compound 6, 2-{[(2S)-2-{[(4-bromophenyl)carbamoyl]amino}-4-methylpentanoyl]amino}-2-methylpropanoic acid] |
| – | (1.0) | 3.57 | CC(C)C[C@H](NC(=O)Nc1ccc(Br)cc1F)C(=O)NCC(=O)O [Compound 7, {[(2S)-2-{[(4-bromo-2-fluorophenyl)carbamoyl]amino}-4-methylpentanoyl]amino}acetic acid] |
| – | (0.77) | 5.95 | CC(C)C[C@H](NC(=O)Nc1ccc(Br)cc1)C(=O)O [Compound 9, (2S)-2-{[(4-bromophenyl)carbamoyl]amino}-4-methylpentanoic acid] |
| 11 | nM (0.89) | – | O=C(Nc1ccc(Br)cc1)NC(Cc1ccccc1)C(=O)NC1CCCCNC1=O (stereo not shown) [Compound 10, 2-{[(4-bromophenyl)carbamoyl]amino}-N-(2-oxoazepan-3-yl)-3-phenylpropanamide] |
| 1.6 | nM (1.00) | – | O=C(O)C1C(C(=O)Nc2ccc(I)cc2)C2C=CC1C21CC1 (stereo not shown) [Compound 11, 3-[(4-iodophenyl)carbamoyl] spiro[bicyclo[2.2.1]heptane-7,1′-cyclopropane]-5-ene-2-carboxylic acid] |
| 4 | nM (0.97) | – | O=C(O)C1C(C(=O)Nc2ccc(Br)cc2)C2C=CC1C21CC1 (stereo not shown) [Compound 12, 3-[(4-bromophenyl)carbamoyl] spiro[bicyclo[2.2.1]heptane-7,1′-cyclopropane]-5-ene-2-carboxylic acid] |

| EC50 [nM] | FPR2 (efficacy) | EC50 (unit inferred) [nM] | SMILES |
| --- | --- | --- | --- |
| – | nM (0.80) | – | CC(=O)c1ccc(NC(=O)Nc2ccc3c(c2)C(=O)N(CCc2c[nH]cn2)C(c2ccc(C#N)cc2)C3)cc1 (stereo not shown) [Compound 13, 1-(4-acetylphenyl)-3-{3-(4-cyanophenyl)-2-[2-(1H-imidazol-4-yl)ethyl]-1-oxo-1,2,3,4-tetrahydroisoquinolin-7-yl}urea] |
| 0.6 | nM (0.87) | – | O=C(O)C1C(C(=O)Nc2ccc(I)cc2)C2CCC1C21CC1 (stereo not shown) [Compound 15, 3-[(4-iodophenyl)carbamoyl] spiro[bicyclo[2.2.1]heptane-7,1′-cyclopropane]-2-carboxylic acid] |
| – | nM (0.70) | – | CSc1ccc(NC(=O)Nc2ccc3c(c2)C(=O)N(CCCN)C(c2ccc(C#N)cc2)C3)cc1 (stereo not shown) [Compound 16, 1-[2-(3-aminopropyl)-3-(4-cyanophenyl)-1-oxo-1,2,3,4-tetrahydroisoquinolin-7-yl]-3-[4-(methylsulfanyl)phenyl]urea] |
| 5.5 | nM (0.92) | – | CSc1ccc(NC(=O)Nc2ccc3c(c2)C(=O)N(CCc2c[nH]cn2)C(c2ccc(C#N)cc2)C3)cc1 (stereo not shown) [Compound 17, 1-{3-(4-cyanophenyl)-2-[2-(1H-imidazol-4-yl)ethyl]-1-oxo-1,2,3,4-tetrahydroisoquinolin-7-yl}-3-[4-(methylsulfanyl)phenyl]urea] |
| – | nM (0.86) | – | CS(=O)(=O)c1ccc(NC(=O)Nc2ccc3c(c2)C(=O)N(CCCN)C(c2ccc(C#N)cc2)C3)cc1 (stereo not shown) [Compound 18, 1-[2-(3-aminopropyl)-3-(4-cyanophenyl)-1-oxo-1,2,3,4-tetrahydroisoquinolin-7-yl]-3-[4-(methylsulfonyl)phenyl]urea] |
| – | nM (1.00) | – | CS(=O)(=O)c1ccc(NC(=O)Nc2ccc3c(c2)C(=O)N(CCc2c[nH]cn2)C(c2ccc(C#N)cc2)C3)cc1 (stereo not shown) [Compound 19, 1-{3-(4-cyanophenyl)-2-[2-(1H-imidazol-4-yl)ethyl]-1-oxo-1,2,3,4-tetrahydroisoquinolin-7-yl}-3-[4-(methylsulfonyl)phenyl]urea] |
| – | nM (0.94) | – | CC(C)=C1C2C=CC1C(C(=O)Nc1ccc(I)cc1)C2C(=O)O (stereo not shown) [Compound 20, 3-[(4-iodophenyl)carbamoyl]-7-(propan-2-ylidene)bicyclo[2.2.1]hept-5-ene-2-carboxylic acid] |
| – | nM (0.85) | – | CC1(C)C2CCC1C(C(=O)Nc1ccc(Br)cc1)C2C(=O)O (stereo not shown) [Compound 21, 3-[(4-bromophenyl)carbamoyl]-7,7-dimethylbicyclo[2.2.1]heptane-2-carboxylic acid] |
| – | nM (0.97) | – | CC1(C)C2CCC1C(C(=O)Nc1ccc(I)cc1)C2C(=O)O (stereo not shown) [Compound 22, 3-[(4-iodophenyl)carbamoyl]-7,7-dimethylbicyclo[2.2.1]heptane-2-carboxylic acid] |
| – | nM (0.83) | – | CSc1ccc(NC(=O)Nc2ccc3c(c2)C(=O)N(CCc2c[nH]cn2)C(c2ccco2)C3)cc1 (stereo not shown) [Compound 23, 1-{3-(furan-2-yl)-2-[2-(1H-imidazol-4-yl)ethyl]-1-oxo-1,2,3,4-tetrahydroisoquinolin-7-yl}-3-[4-(methylsulfanyl)phenyl]urea] |
| – | nM (0.93) | – | C[S+]([O-])c1ccc(NC(=O)Nc2ccc3c(c2)C(=O)N(CCc2c[nH]cn2)C(c2ccc(F)cn2)C3)cc1 (stereo not shown) [Compound 24, 1-{3-(5-fluoropyridin-2-yl)-2-[2-(1H-imidazol-4-yl)ethyl]-1-oxo-1,2,3,4-tetrahydroisoquinolin-7-yl}-3-[4-(methylsulfinyl)phenyl]urea] |
| – | nM (1.0) | – | CS(=O)(=O)c1ccc(NC(=O)Nc2ccc3c(c2)C(=O)N(CCc2c[nH]cn2)C(c2ccc(F)cn2)C3)cc1 (stereo not shown) [Compound 25, 1-{3-(5-fluoropyridin-2-yl)-2-[2-(1H-imidazol-4-yl)ethyl]-1-oxo-1,2,3,4-tetrahydroisoquinolin-7-yl}-3-[4-(methylsulfonyl)phenyl]urea] |
| – | nM (0.91) | – | NC(=O)C1C(C(=O)Nc2ccc(Br)cc2)C2C=CC1C21CC1 (stereo not shown) [Compound 26, N-(4-bromophenyl) spiro[bicyclo[2.2.1]heptane-7,1′-cyclopropane]-5-ene-2,3-dicarboxamide] |
| – | nM (0.81) | – | CSc1ccc(NC(=O)Nc2ccc3c(c2)C(=O)N(CCc2c[nH]cn2)C(c2ccc(Cl)o2)C3)cc1 (stereo not shown) [Compound 27, 1-{3-(5-chlorofuran-2-yl)-2-[2-(1H-imidazol-4-yl)ethyl]-1-oxo-1,2,3,4-tetrahydroisoquinolin-7-yl}-3-[4-(methylsulfanyl)phenyl]urea] |
| – | nM (0.89) | – | CSc1ccc(NC(=O)Nc2ccc3c(c2)C(=O)N(CCc2c[nH]cn2)C(c2ccc(Cl)nc2)C3)cc1 (stereo not shown) [Compound 28, 1-{3-(6-chloropyridin-3-yl)-2-[2-(1H-imidazol-4-yl)ethyl]-1-oxo-1,2,3,4-tetrahydroisoquinolin-7-yl}-3-[4-(methylsulfanyl)phenyl]urea] |
| 2.5 | nM (0.96) | – | NC(=O)C1C(C(=O)Nc2ccc(Br)cc2)C2CCC1C21CC1 (stereo not shown) [Compound 30, N-(4-bromophenyl) spiro[bicyclo[2.2.1]heptane-7,1′-cyclopropane]-2,3-dicarboxamide] |

| SMILES | EC50 [nM] | FPR2 (efficacy) | EC50 (unit inferred) [nM] |
| --- | --- | --- | --- |
| CC(C)C[C@H](NC(=O)Nc1ccc(Br)cc1)C(=O)NCC(=O)O [Compound 8, {[(2S)-2-{[(4-bromophenyl)carbamoyl]amino}-4-methylpentanoyl]amino}acetic acid] | – | (0.78) | – |
